Data on two compounds can be found in patent US7691816B2, “Pharmaceutical compositions” (Renovo Ltd., priority 2005, dated 2010).

A short description of the data set: Localised pain and erythema associated with intradermal injection of formulations. Type of data set: in vivo, human. Here is the method: A study was conducted to evaluate localised pain and erythema associated with intradermal injection of medicaments manufactured in accordance with the invention and the pain and erythema associated with control injections of prior art compositions.
Experimental injectable solutions were prepared as described above.
Briefly, a volume of 100 μL of each formulation described above was injected intradermally into the inner aspect of the upper arms of a volunteer. In addition to the DS11 control described above, a solution of the known local anaesthetic lignocaine was also used as a further control. The pain on injection and erythema were categorised by the volunteer and a clinician.
Both the volunteer and the clinician undertook these evaluations. The extent of pain or erythema associated with the different formulations used was rated based upon the following categories (listed in ascending severity): […]

Where [1] appears, read: Volunteer 1, 100 μL intradermal, inner aspect of upper arm.
The mark [2] stands for this setting: Volunteer 2, 100 μL intradermal, inner aspect of upper arm.

`CCN(CC)CC(=O)Nc1c(C)cccc1C` [Lignocaine, lignocaine]: the Erythema result (Table 4, summary of Table 3) is on record as “Marked”; the Erythema result under setting [1] is given as “Marked”; the Erythema result under setting [2] is “Marked”. Moreover, the Pain entry runs as follows: (Table 4, summary of Table 3) “Marked”; under setting [1], “Marked”; under setting [2], “Marked”.
For the compound Glucose, the Pain result (in vivo) was “None”.
